Results published in patent US6358885B1, “Substituted phenylheterocyclic herbicides” (Mississippi State University, priority 1992, dated 2002).

Columns and labels:
bedstraw = assay: Test B preemergence/postemergence greenhouse plant response rating 0 to 10; assay type: in vivo, Galium aparine; details: for Plant response rating, Bedstraw: 0 to 10 scale
Method in brief: (§1)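 Planted seeds are treated preemergence with compound dissolved in a non-phytotoxic solvent, while postemergence applications go onto plants of two to eighteen cm. Plants stay in the greenhouse twelve to sixteen days and are then rated visually relative to controls.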

rice [1] = assay: as above; assay type: in vivo, Oryza sativa; details: for Plant response rating, Rice: 0 to 10 scale
Method in brief: as §1

crabgrass = assay: as above; assay type: in vivo, Digitaria spp.; details: for Plant response rating, Crabgrass: 0 to 10 scale
Method in brief: as §1

sorghum = assay: Test C preemergence/postemergence greenhouse plant response rating 0 to 100; assay type: in vivo, Sorghum bicolor; details: for Plant response rating, Sorghum: 0 to 100 scale
Method in brief: (§2)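 Compounds in non-phytotoxic solvent applied preemergence to sandy loam one day after planting, postemergence at the 1–4 leaf stage, or to ~2.5 cm floodwater over silt loam.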

purple nutsedge = assay: Test B preemergence/postemergence greenhouse plant response rating 0 to 10; assay type: in vivo, Cyperus rotundus; details: for Plant response rating, Nutsedge: 0 to 10 scale
Method in brief: as §1

barnyardgrass = assay: Test C flood test plant response rating 0 to 100; assay type: in vivo, Echinochloa crus-galli; details: for Plant response rating Barnyardgrass 2: flood test species listed under POSTEMERGENCE, 0 to 100 scale
Method in brief: as §2

sugar beet = assay: Test B preemergence/postemergence greenhouse plant response rating 0 to 10; assay type: in vivo, Beta vulgaris; details: for Plant response rating, Sugar beet: 0 to 10 scale
Method in brief: as §1

rape = assay: as above; assay type: in vivo, Brassica napus; details: for Plant response rating, Rape: 0 to 10 scale
Method in brief: as §1

corn = assay: Test C preemergence/postemergence greenhouse plant response rating 0 to 100; assay type: in vivo, Zea mays; details: for Plant response rating, Corn: 0 to 100 scale
Method in brief: as §2

blackgrass = assay: Test B preemergence/postemergence greenhouse plant response rating 0 to 10; assay type: in vivo, Alopecurus myosuroides; details: for Plant response rating, Blackgrass: POSTEMERGENCE, 0 to 10 scale
Method in brief: as §1

pigweed = assay: Test C preemergence/postemergence greenhouse plant response rating 0 to 100; assay type: in vivo, Amaranthusretroflexus; details: for Plant response rating Pigweed: 0 to 100 scale
Method in brief: as §2

umbrella sedge = assay: Test C flood test plant response rating 0 to 100; assay type: in vivo, Cyperus difformis; details: for Plant response rating Umbrella sedge: flood test species listed under POSTEMERGENCE, 0 to 100 scale
Method in brief: as §2

cocklebur = assay: Test B preemergence/postemergence greenhouse plant response rating 0 to 10; assay type: in vivo, Xanthium pensylvanicum; details: for Plant response rating, Cocklebur: 0 to 10 scale
Method in brief: as §1

soybean = assay: as above; assay type: in vivo, Glycine max; details: for Plant response rating, Soybean: 0 to 10 scale
Method in brief: as §1

morningglory = assay: Test C preemergence/postemergence greenhouse plant response rating 0 to 100; assay type: in vivo, Ipomoea hederacea; details: for Plant response rating, Morningglory: 0 to 100 scale
Method in brief: as §2

lambsquarters = assay: Test B preemergence/postemergence greenhouse plant response rating 0 to 10; assay type: in vivo, Chenopodium album; details: for Plant response rating, Lambsquarter: 0 to 10 scale
Method in brief: as §1

rice [2] = assay: Test C flood test plant response rating 0 to 100; assay type: in vivo, Oryza sativa; details: for Plant response rating Rice Japonica: flood test species listed under POSTEMERGENCE, 0 to 100 scale
Method in brief: as §2

barley = assay: Test B preemergence/postemergence greenhouse plant response rating 0 to 10; assay type: in vivo, Hordeum vulgare; details: for Plant response rating, Barley: 0 to 10 scale
Method in brief: as §1

[3] = POSTEMERGENCE section, flood test, Rate 4 g/ha
[4] = Rate 16 g/ha, under POSTEMERGENCE head (flood test species)

C#CC(C)Oc1cc(-c2nn3c(c2Br)CCCC3)c(F)cc1Cl (centres unmarked) [Compound 66]
Plant response rating, Bedstraw (bedstraw; POSTEMERGENCE, Rate 50 g/ha): 10 | Plant response rating, Bedstraw (bedstraw; PREEMERGENCE, Rate 50 g/ha): 9 | Plant response rating (0 to 10 scale), Bedstraw (bedstraw; PREEMERGENCE, Rate 200 g/ha): 10 | Plant response rating, Bedstraw (bedstraw; Rate 200 g/ha, POSTEMERGENCE): 10 | Plant response rating, Rice (rice [1]; POSTEMERGENCE, Rate 50 g/ha): 5 | Plant response rating, Rice (rice [1]; PREEMERGENCE, Rate 50 g/ha): 0 | Plant response rating (0 to 10 scale), Rice (rice [1]; PREEMERGENCE, Rate 200 g/ha): 0 | Plant response rating, Rice (rice [1]; Rate 200 g/ha, POSTEMERGENCE): 6 | Plant response rating, Crabgrass (crabgrass; POSTEMERGENCE, Rate 50 g/ha): 4 | Plant response rating, Crabgrass (crabgrass; PREEMERGENCE, Rate 50 g/ha): 0 | Plant response rating (0 to 10 scale), Crabgrass (crabgrass; PREEMERGENCE, Rate 200 g/ha): 3 | Plant response rating, Crabgrass (crabgrass; Rate 200 g/ha, POSTEMERGENCE): 5 | Plant response rating, Sorghum (sorghum; POSTEMERGENCE, 62 g/ha): 50 | Plant response rating, Sorghum (sorghum; POSTEMERGENCE, 250 g/ha): 60 | Plant response rating (0 to 100), Sorghum (sorghum; POSTEMERGENCE, Rate 4 g/ha): 30 | Plant response rating, Sorghum (sorghum; PREEMERGENCE, 250 g/ha): 30 | Plant response rating (0 to 100), Sorghum (sorghum; PREEMERGENCE, Rate 4 g/ha): 0 | Plant response rating (0 to 100), Sorghum (sorghum; Rate 16 g/ha, POSTEMERGENCE): 40 | Plant response rating (0 to 100), Sorghum (sorghum; Rate 16 g/ha, PREEMERGENCE): 0 | Plant response rating, Nutsedge (purple nutsedge; POSTEMERGENCE, Rate 50 g/ha): 2 | Plant response rating, Nutsedge (purple nutsedge; PREEMERGENCE, Rate 50 g/ha): 0 | Plant response rating (0 to 10 scale), Nutsedge (purple nutsedge; PREEMERGENCE, Rate 200 g/ha): 0 | Plant response rating, Nutsedge (purple nutsedge; Rate 200 g/ha, POSTEMERGENCE): 2 | Plant response rating (0 to 100), Barnyardgrass 2 (barnyardgrass; [3]): 10 | Plant response rating (0 to 100), Barnyardgrass 2 (barnyardgrass; [4]): 90 | Plant response rating Barnyardgrass 2 (barnyardgrass; 62 g/ha): 100 | Plant response rating Barnyardgrass 2 (barnyardgrass; 250 g/ha): 100 | Plant response rating, Sugar beet (sugar beet; POSTEMERGENCE, Rate 50 g/ha): 10 | Plant response rating, Sugar beet (sugar beet; PREEMERGENCE, Rate 50 g/ha): 8 | Plant response rating (0 to 10 scale), Sugar beet (sugar beet; PREEMERGENCE, Rate 200 g/ha): 10 | Plant response rating, Sugar beet (sugar beet; Rate 200 g/ha, POSTEMERGENCE): 10 | Plant response rating, Rape (rape; POSTEMERGENCE, Rate 50 g/ha): 10 | Plant response rating, Rape (rape; PREEMERGENCE, Rate 50 g/ha): 1 | Plant response rating (0 to 10 scale), Rape (rape; PREEMERGENCE, Rate 200 g/ha): 5 | Plant response rating, Rape (rape; Rate 200 g/ha, POSTEMERGENCE): 10 | Plant response rating, Corn (corn; POSTEMERGENCE, 62 g/ha): 40 | Plant response rating, Corn (corn; POSTEMERGENCE, 250 g/ha): 60 | Plant response rating (0 to 100), Corn (corn; POSTEMERGENCE, Rate 4 g/ha): 30 | Plant response rating, Corn (corn; PREEMERGENCE, 62 g/ha): 0 | Plant response rating, Corn (corn; PREEMERGENCE, 250 g/ha): 60 | Plant response rating (0 to 100), Corn (corn; PREEMERGENCE, Rate 4 g/ha): 0 | Plant response rating (0 to 100), Corn (corn; Rate 16 g/ha, POSTEMERGENCE): 30 | Plant response rating (0 to 100), Corn (corn; Rate 16 g/ha, PREEMERGENCE): 0 | Plant response rating, Blackgrass (blackgrass; Rate 50 g/ha): 4 | Plant response rating (0 to 10 scale), Blackgrass (blackgrass; PREEMERGENCE, Rate 200 g/ha): 7 | Plant response rating, Blackgrass (blackgrass; Rate 200 g/ha): 6 | Plant response rating Pigweed (pigweed; POSTEMERGENCE, 62 g/ha): 100 | Plant response rating Pigweed (pigweed; POSTEMERGENCE, 250 g/ha): 100 | Plant response rating (0 to 100), Pigweed (pigweed; POSTEMERGENCE, Rate 4 g/ha): 30 | Plant response rating Pigweed (pigweed; PREEMERGENCE, 62 g/ha): 100 | Plant response rating Pigweed (pigweed; PREEMERGENCE, 250 g/ha): 100 | Plant response rating (0 to 100), Pigweed (pigweed; PREEMERGENCE, Rate 4 g/ha): 0 | Plant response rating (0 to 100), Pigweed (pigweed; Rate 16 g/ha, POSTEMERGENCE): 100 | Plant response rating (0 to 100), Pigweed (pigweed; Rate 16 g/ha, PREEMERGENCE): 90 | Plant response rating (0 to 100), Umbrella sedge (umbrella sedge; [3]): 0 | Plant response rating (0 to 100), Umbrella sedge (umbrella sedge; [4]): 0 | Plant response rating Umbrella sedge (umbrella sedge; 62 g/ha): 0 | Plant response rating Umbrella sedge (umbrella sedge; 250 g/ha): 80 | Plant response rating, Cocklebur (cocklebur; POSTEMERGENCE, Rate 50 g/ha): 9 | Plant response rating, Cocklebur (cocklebur; PREEMERGENCE, Rate 50 g/ha): 0 | Plant response rating (0 to 10 scale), Cocklebur (cocklebur; PREEMERGENCE, Rate 200 g/ha): 0 | Plant response rating, Cocklebur (cocklebur; Rate 200 g/ha, POSTEMERGENCE): 10 | Plant response rating, Soybean (soybean; POSTEMERGENCE, Rate 50 g/ha): 6 | Plant response rating, Soybean (soybean; PREEMERGENCE, Rate 50 g/ha): 0 | Plant response rating (0 to 10 scale), Soybean (soybean; PREEMERGENCE, Rate 200 g/ha): 0 | Plant response rating, Soybean (soybean; Rate 200 g/ha, POSTEMERGENCE): 8 | Plant response rating, Morningglory (morningglory; POSTEMERGENCE, 62 g/ha): 85 | Plant response rating, Morningglory (morningglory; POSTEMERGENCE, 250 g/ha): 100 | Plant response rating (0 to 100), Morningglory (morningglory; POSTEMERGENCE, Rate 4 g/ha): 50 | Plant response rating, Morningglory (morningglory; PREEMERGENCE, 62 g/ha): 10 | Plant response rating, Morningglory (morningglory; PREEMERGENCE, 250 g/ha): 60 | Plant response rating (0 to 100), Morningglory (morningglory; PREEMERGENCE, Rate 4 g/ha): 0 | Plant response rating (0 to 100), Morningglory (morningglory; Rate 16 g/ha, POSTEMERGENCE): 50 | Plant response rating (0 to 100), Morningglory (morningglory; Rate 16 g/ha, PREEMERGENCE): 0 | Plant response rating, Lambsquarter (lambsquarters; POSTEMERGENCE, Rate 50 g/ha): 10 | Plant response rating, Lambsquarter (lambsquarters; PREEMERGENCE, Rate 50 g/ha): 9 | Plant response rating (0 to 10 scale), Lambsquarter (lambsquarters; PREEMERGENCE, Rate 200 g/ha): 10 | Plant response rating, Lambsquarter (lambsquarters; Rate 200 g/ha, POSTEMERGENCE): 10 | Plant response rating (0 to 100), Rice Japonica (rice [2]; [3]): 0 | Plant response rating (0 to 100), Rice Japonica (rice [2]; [4]): 0 | Plant response rating Rice Japonica (rice [2]; 62 g/ha): 10 | Plant response rating Rice Japonica (rice [2]; 250 g/ha): 25 | Plant response rating, Barley (barley; POSTEMERGENCE, Rate 50 g/ha): 5 | Plant response rating, Barley (barley; PREEMERGENCE, Rate 50 g/ha): 0 | Plant response rating (0 to 10 scale), Barley (barley; PREEMERGENCE, Rate 200 g/ha): 2 | Plant response rating, Barley (barley; Rate 200 g/ha, POSTEMERGENCE): 6
